Like-named read-outs stand apart in the source and are kept apart here.
Experiments:
[1] = system: AmpC β-lactamase, E. coli BL21 (pET21a); assay type: biochemical; conditions: co-culture or co-incubation with OA
S. aureus USA300 [2] = assay type: cell-based, Staphylococcus aureus; conditions: OA combined with penicillin G
E. coli ZJ487 = assay type: cell-based, Escherichia coli; conditions: OA 32 μg/mL with Mep; postinoculation
A549 cells = assay type: cell-based, human; conditions: 6 h
TEM-1 = TEM-1 (Escherichia coli, UniProt P62593); assay: biochemical; conditions: IC50, purified TEM-1
TEM-1, sequence (P62593 24-286 limits assumed): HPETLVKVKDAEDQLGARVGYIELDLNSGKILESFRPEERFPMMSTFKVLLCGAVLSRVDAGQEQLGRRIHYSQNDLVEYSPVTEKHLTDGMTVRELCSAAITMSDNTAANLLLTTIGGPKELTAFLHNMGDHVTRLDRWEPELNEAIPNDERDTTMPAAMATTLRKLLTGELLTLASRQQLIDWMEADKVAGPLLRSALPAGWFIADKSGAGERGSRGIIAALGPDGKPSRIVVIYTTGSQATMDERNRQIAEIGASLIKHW

[3] = system: E. coli BL21 (pET28a-SP-NDM-1); assay type: cell-based, Escherichia coli; conditions: OA 32 μg/mL with Mep; postinoculation
S. aureus USA300 [4] = assay type: in vivo, C57BL/6J male mice; conditions: for survival rate: 96 h; for activity of β-lactamases in bronchoalveolar lavage fluid: 36 h
NDM-1 F240A = NDM-1 F240A (Klebsiella pneumoniae, UniProt C7C422, F240A); assay: biochemical; assay type: binding
E. coli ZJ478 = assay type: in vivo, C57BL/6J male mice; conditions: for survival rate: 120 h
[5] = system: NDM-1-Asp199Ala, NDM-1-Thr201Ala, and NDM-1-Phe240Ala; assay type: biochemical
MH-S cells = assay type: cell-based, mouse; conditions: 6 h
OXA-1 = OXA-1 (Escherichia coli, UniProt P13661); assay: biochemical; design: species or system E. coli; conditions: IC50, purified OXA-1
OXA-1, sequence (P13661 26-276): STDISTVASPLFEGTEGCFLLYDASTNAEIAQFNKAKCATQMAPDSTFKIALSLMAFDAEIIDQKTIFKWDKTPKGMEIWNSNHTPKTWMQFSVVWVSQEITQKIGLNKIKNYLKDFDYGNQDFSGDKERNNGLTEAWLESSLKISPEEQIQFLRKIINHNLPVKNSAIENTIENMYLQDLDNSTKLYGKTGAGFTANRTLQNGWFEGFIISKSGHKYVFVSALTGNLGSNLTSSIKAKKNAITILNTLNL

[6] = system: E. coli ZJ487 (NDM-1/MCR-1); assay: microbe, parasite or virus in culture; assay type: cell-based, Escherichia coli; conditions: for MIC: Escherichia coli; for MIC of Mep combination: Mep with the named analogue at 32 μg/mL; for FIC Index: analogue + Mep; for MIC of analogues of OA combination: analogue with Mep
NDM-1 = NDM-1 (Escherichia coli, UniProt E5KIY2); assay type: biochemical, E. coli; conditions: OA analogues, Figure 3G
suilysin (SLY) = suilysin (SLY) (Streptococcus suis, UniProt Q55996); assay: biochemical
[7] = OA combined with penicillin G, 36 h postinfection
[8] = monotherapy 50 mg/kg subcutaneous every 8 h
[9] = named compound combined with Mep 5 mg/kg
[10] = read-out: MIC of analogues of OA alone, ZJ487, Table 1, median (range)

CC1(C)CC[C@]2(C(=O)O)CC[C@]3(C)C(=CC[C@@H]4[C@@]5(C)CC[C@H](O)C(C)(C)[C@@H]5CC[C@]43C)[C@@H]2C1 [OA, oleanolic acid]
inhibitory effect on β-lactamase activity in culture supernatant [1]: No significant inhibitory effect
bactericidal effect (S. aureus USA300 [2]): significantly eliminate, but not thoroughly kill
time to complete elimination (E. coli ZJ487): ≤ 3 h
concentration protecting cells from hemolysin-mediated cell injury (A549 cells): 1 to 4 µg/mL
IC50 (TEM-1): > 109 µM
time to complete elimination [3]: ≤ 6 h
survival rate (S. aureus USA300 [4]; OA 50 mg/kg combined with penicillin G 50 mg/kg, subcutaneous every 8 h): 75.0%
lung lesions (S. aureus USA300 [4]; OA combined with penicillin G): greatly alleviated
IL-1β, IL-6, and TNF-α levels in bronchoalveolar lavage fluid (S. aureus USA300 [4]; [7]): significant decreases
number of bacteria in the lungs (S. aureus USA300 [4]; [7]): significant reduction
bacterial burden and inflammatory responses (S. aureus USA300 [4]; OA monotherapy): also inhibited
survival rate (S. aureus USA300 [4]; [8]): 43.8%
activity of β-lactamases in bronchoalveolar lavage fluid (S. aureus USA300 [4]; monotherapy): inhibited
activity of β-lactamases in bronchoalveolar lavage fluid (S. aureus USA300 [4]; penicillin G combined with OA): inhibited
Kd (NDM-1 F240A): 14.3 µM
E. coli colonization in the liver and spleen (E. coli ZJ478; OA combined with Mep, 36 h postinfection): significantly inhibited
survival rate (E. coli ZJ478; [9]): 61.1%
inhibitory effect on activity of NDM-1 mutants [5]: significant inhibitory effect was not detected
concentration protecting cells from hemolysin-mediated cell injury (MH-S cells): 1 to 4 µg/mL
IC50 (OXA-1): > 109 µM

CC1(C)S[C@@H]2[C@H](NC(=O)Cc3ccccc3)C(=O)N2[C@H]1C(=O)O [Penicillin G, penicillin G, reference compound]
survival rate (S. aureus USA300 [4]; [8]): 25.0%
activity of β-lactamases in bronchoalveolar lavage fluid (S. aureus USA300 [4]; monotherapy): such inhibition was not observed

CC1(C)[C@@H](O[C@H]2O[C@H](C(=O)O)[C@@H](O)[C@H](O)[C@H]2O[C@@H]2O[C@H](C(=O)O)[C@@H](O)[C@H](O)[C@H]2O)CC[C@]2(C)[C@H]3C(=O)C=C4[C@@H]5C[C@@](C)(C(=O)O)CC[C@]5(C)CC[C@@]4(C)[C@]3(C)CC[C@@H]12 [glycyrrhizic acid]
MIC [6, 10]: 512 µg/mL
MIC of Mep combination ([6]; ZJ487, median (range)): 8(4–16) μg/mL
FIC Index ([6]; ZJ487): 0.40 ± 0.14
MIC of analogues of OA combination ([6]; ZJ487): 32 μg/mL

C[C@@H](O)[C@H]1C(=O)N2C(C(=O)O)=C(S[C@@H]3CN[C@H](C(=O)N(C)C)C3)[C@H](C)[C@H]12 [Meropenem, meropenem, reference compound]
MIC ([6]; read-out: MIC of Mep alone, ZJ487, Table 1, median (range)): 32 µg/mL
MIC of Mep alone ([6]; ZJ487, Table 1, median (range), listed as Mep): 16(16–32) μg/mL
survival rate (E. coli ZJ478; Mep 5 mg/kg alone, subcutaneous every 8 h): 44.4%

C[C@H]1[C@H](C)CC[C@]2(C(=O)O)CC[C@]3(C)C(=CC[C@@H]4[C@@]5(C)CC[C@H](O)C(C)(C)[C@@H]5CC[C@]43C)[C@H]12 [ursolic acid]
MIC [6, 10]: 512 µg/mL
MIC of Mep combination ([6]; ZJ487, median (range)): 2(2–4) μg/mL
FIC Index ([6]; ZJ487): 0.17 ± 0.04
MIC of analogues of OA combination ([6]; ZJ487): 32 μg/mL
inhibitory effect against NDM-1 (NDM-1): robust inhibitory effects

C[C@H]1[C@H](C)CC[C@]2(C(=O)O)CC[C@]3(C)C(=CC[C@@H]4[C@@]5(C)C[C@@H](O)[C@H](O)C(C)(C)[C@@H]5CC[C@]43C)[C@H]12 [corosolic acid]
MIC [6, 10]: 512 µg/mL
MIC of Mep combination ([6]; ZJ487, median (range)): 2(2–4) μg/mL
FIC Index ([6]; ZJ487): 0.17 ± 0.04
MIC of analogues of OA combination ([6]; ZJ487): 32 μg/mL
inhibitory effect against NDM-1 (NDM-1): robust inhibitory effects
IC50 (suilysin (SLY)): < 2.12 µM
survival rate (E. coli ZJ478; [9]): 77.8%

α-boswellic acid
MIC of Mep combination ([6]; ZJ487, median (range)): 16(16) μg/mL
MIC of analogues of OA alone ([6]; ZJ487, Table 1, median (range)): 512(≥512) μg/mL
FIC Index ([6]; ZJ487): 0.73 ± 0.29
MIC of analogues of OA combination ([6]; ZJ487): 32 μg/mL

CC1(C)CC[C@]2(C(=O)O)CC[C@]3(C)C(=CC[C@@H]4[C@@]5(C)C[C@@H](O)[C@H](O)[C@@](C)(CO)[C@@H]5CC[C@]43C)[C@@H]2C1 [arjunolic acid]
MIC [6, 10]: 512 µg/mL
MIC of Mep combination ([6]; ZJ487, median (range)): 8(4–16) μg/mL
FIC Index ([6]; ZJ487): 0.40 ± 0.14
MIC of analogues of OA combination ([6]; ZJ487): 32 μg/mL

CC1(C)CC[C@]2(C(=O)O)CC[C@]3(C)C(=CC[C@@H]4[C@@]5(C)C[C@@H](O)[C@H](O)C(C)(C)[C@@H]5CC[C@]43C)[C@@H]2C1 [maslinic acid]
MIC [6, 10]: 512 µg/mL
MIC of Mep combination ([6]; ZJ487, median (range)): 4(2–4) μg/mL
FIC Index ([6]; ZJ487): 0.38 ± 0.00
MIC of analogues of OA combination ([6]; ZJ487): 32 μg/mL
